In patent US11884675B2, “Heterocyclic compounds as triggering receptor expressed on myeloid cells 2 agonists and methods of use” (AMGEN INC., priority 2020, dated 2024):

Target: hTREM2 (Homo sapiens, UniProt Q9NZC2)
Test: TREM2 agonist potency by Syk phosphorylation (AlphaLisa) in HEK293T-hTREM2 cells, used for Examples 306-429
Type: cell-based
Design: expressed in transfected cells; host or cells: HEK293T (HEK293T-hTREM2 cells)
Details: HEK293 Cells
Outline: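 HEK293T cells expressing human TREM2 and DAP12, plated 20-24 h before, were exposed to compounds for 45 min at room temperature, then lysed. Phospho-Syk read by AlphaLisa; % activation from a standard curve and EC50 from a four-parameter log(agonist) fit.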

Sequence of hTREM2 (Q9NZC2 19-230): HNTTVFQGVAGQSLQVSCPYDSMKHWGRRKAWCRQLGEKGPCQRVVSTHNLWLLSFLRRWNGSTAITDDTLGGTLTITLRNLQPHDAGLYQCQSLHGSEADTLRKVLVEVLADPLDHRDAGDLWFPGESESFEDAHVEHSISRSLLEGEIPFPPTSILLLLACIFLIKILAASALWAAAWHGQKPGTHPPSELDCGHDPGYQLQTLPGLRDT
Sequence of hTREM2 (O43914 22-113 partner): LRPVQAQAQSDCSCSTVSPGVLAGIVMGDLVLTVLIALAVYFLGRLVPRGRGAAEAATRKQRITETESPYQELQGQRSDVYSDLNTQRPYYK

| EC50 [nM] | Structure (SMILES) |
| --- | --- |
| 50 to 500 | Cc1nc2nc([C@@H]3CCO[C@@H](c4cnn(C5CC5)c4)C3)nc(-c3ccc(F)cc3Cl)c2nc1C [Example 321, 4-(2-chloro-4-fluorophenyl)-2-((2R,4R)-2-(1-cyclopropyl-1H-pyrazol-4-yl)tetrahydro-2H-pyran-4-yl)-6,7-dimethylpteridine] |
| ≤ 50 | COc1cc(C2CN(c3nc(-c4ccc(C(F)(F)F)nc4)c4nc(C)c(C)nc4n3)CCO2)ccn1 (stereo not drawn) [Example 322, 4-(6,7-dimethyl-4-(6-(trifluoromethyl)pyridin-3-yl)pteridin-2-yl)-2-(2-methoxypyridin-4-yl)morpholine] |
| 50 to 500 | Cc1cc(C2CC(c3nc(-c4ccc(C(F)(F)F)nc4)c4ccc(C)nc4n3)CCO2)ccn1 (stereo not drawn) [Example 324, 7-methyl-2-(2-(2-methylpyridin-4-yl)tetrahydro-2H-pyran-4-yl)-4-(6-(trifluoromethyl)pyridin-3-yl)pyrido[2,3-d]pyrimidine] |
| ≤ 50 | Cc1cc(C2CC(c3cc4nc(C)ccc4c(-c4ccc(F)cc4F)n3)CCO2)ccn1 (stereo not drawn) [Example 326, 5-(2,4-difluorophenyl)-2-methyl-7-(2-(2-methylpyridin-4-yl)tetrahydro-2H-pyran-4-yl)-1,6-naphthyridine] |
| ≤ 50 | Cc1cc(C2CC(c3cc4nc(C)c(C)cc4c(-c4ccc(Cl)cc4F)n3)CCO2)ccn1 (stereo not drawn) [Example 327, 5-(4-chloro-2-fluorophenyl)-2,3-dimethyl-7-(2-(2-methylpyridin-4-yl)tetrahydro-2H-pyran-4-yl)-1,6-naphthyridine] |
| ≤ 50 | Cc1cc(C2CC(c3cc4nc(C)c(C)cc4c(-c4ccc(F)cc4F)n3)CCO2)ccn1 (stereo not drawn) [Example 328, 5-(2,4-difluorophenyl)-2,3-dimethyl-7-(2-(2-methylpyridin-4-yl)tetrahydro-2H-pyran-4-yl)-1,6-naphthyridine] |
| ≤ 50 | Cc1cnc2c(-c3ccc(F)cc3F)nc([C@H]3CCO[C@@H](c4cnn(C5CC5)c4)C3)nc2n1 [Example 330, 2-[(2R,4S)-2-(1-cyclopropylpyrazol-4-yl)tetrahydropyran-4-yl]-4-(2,4-difluorophenyl)-7-methyl-pteridine] |
| 500 to 3000 | Cc1cc([C@H]2C[C@H](c3cc4nc(C)c(C)nc4c(-c4ccc(F)cc4F)n3)CCO2)ccn1 [Example 331, 5-(2,4-difluorophenyl)-2,3-dimethyl-7-((2R,4R)-2-(2-methylpyridin-4-yl)tetrahydro-2H-pyran-4-yl)pyrido[3,4-b]pyrazine] |
| 500 to 3000 | Cc1cc([C@@H]2CN(c3cc4nc(C)cnc4c(-c4ccc(F)cc4F)n3)CCO2)ccn1 [Example 333, (R)-4-(5-(2,4-difluorophenyl)-2-methylpyrido[3,4-b]pyrazin-7-yl)-2-(2-methylpyridin-4-yl)morpholine] |
| ≤ 50 | Cc1cc([C@H]2CN(c3cc4nc(C)cnc4c(-c4ccc(F)cc4F)n3)CCO2)ccn1 [Example 334, (S)-4-(5-(2,4-difluorophenyl)-2-methylpyrido[3,4-b]pyrazin-7-yl)-2-(2-methylpyridin-4-yl)morpholine] |
| ≤ 50 | COc1cc([C@H]2CN(c3nc(-c4ccc(Cl)cc4F)c4nc(C)c(C)nc4n3)CCO2)ccn1 [Example 335, (S)-4-(4-(4-chloro-2-fluorophenyl)-6,7-dimethylpteridin-2-yl)-2-(2-methoxypyridin-4-yl)morpholine] |
| 50 to 500 | COc1cc([C@@H]2CN(c3nc(-c4ccc(Cl)cc4F)c4nc(C)c(C)nc4n3)CCO2)ccn1 [Example 336, (R)-4-(4-(4-chloro-2-fluorophenyl)-6,7-dimethylpteridin-2-yl)-2-(2-methoxypyridin-4-yl)morpholine] |
| ≤ 50 | Cc1cc(C2CN(c3nc(-c4ccc(Cl)c(F)c4F)c4nc(C)c(C)nc4n3)CCO2)ccn1 (stereo not drawn) [Example 337, 4-(4-(4-chloro-2,3-difluorophenyl)-6,7-dimethylpteridin-2-yl)-2-(2-methylpyridin-4-yl)morpholine] |
| 500 to 3000 | Cc1cnc2c(-c3ccc(F)cc3F)nc([C@@H]3CCO[C@@H](c4cnn(C5CC5)c4)C3)nc2n1 [Example 338, 2-((2R,4R)-2-(1-cyclopropyl-1H-pyrazol-4-yl)tetrahydro-2H-pyran-4-yl)-4-(2,4-difluorophenyl)-7-methylpteridine] |
| 50 to 500 | Cc1cnc2c(-c3ccc(F)cc3F)nc([C@H]3CCO[C@H](c4cnn(C5CC5)c4)C3)nc2n1 [Example 339, 2-((2S,4S)-2-(1-cyclopropyl-1H-pyrazol-4-yl)tetrahydro-2H-pyran-4-yl)-4-(2,4-difluorophenyl)-7-methylpteridine] |
| 50 to 500 | Cc1cnc2c(-c3ccc(C(F)(F)F)nc3)nc(N3CCOC(c4cnn(C5CC5)c4)C3)cc2n1 (stereo not drawn) [Example 340, 2-(1-cyclopropyl-1H-pyrazol-4-yl)-4-(2-methyl-5-(6-(trifluoromethyl)pyridin-3-yl)pyrido[3,4-b]pyrazin-7-yl)morpholine] |
| ≤ 50 | Cc1cnc2c(-c3ccc(F)cc3F)nc(N3CCOC(c4cnn(C5CC5)c4)C3)cc2n1 (stereo not drawn) [Example 341, 2-(1-cyclopropyl-1H-pyrazol-4-yl)-4-(5-(2,4-difluorophenyl)-2-methylpyrido[3,4-b]pyrazin-7-yl)morpholine] |
| ≤ 50 | Cc1nc2cc(N3CCOC(c4cnn(C5CC5)c4)C3)nc(-c3ccc(F)cc3F)c2nc1C (stereo not drawn) [Example 342, 2-(1-cyclopropyl-1H-pyrazol-4-yl)-4-(5-(2,4-difluorophenyl)-2,3-dimethylpyrido[3,4-b]pyrazin-7-yl)morpholine] |
| 50 to 500 | Cc1cc(C2CN(c3nc(-c4ccc(Cl)cc4C(F)(F)F)c4nc(C)c(C)nc4n3)CCO2)ccn1 (stereo not drawn) [Example 343, 4-(4-(4-chloro-2-(trifluoromethyl)phenyl)-6,7-dimethylpteridin-2-yl)-2-(2-methylpyridin-4-yl)morpholine] |
| ≤ 50 | Cc1cc(C2CN(c3cc4nc(C)c(C)cc4c(-c4ccc(Cl)cc4F)n3)CCO2)ccn1 (stereo not drawn) [Example 344, 4-(5-(4-chloro-2-fluorophenyl)-2,3-dimethyl-1,6-naphthyridin-7-yl)-2-(2-methylpyridin-4-yl)morpholine] |
| ≤ 50 | Cc1cc(C2CN(c3cc4nc(C)c(C)cc4c(-c4ccc(F)cc4F)n3)CCO2)ccn1 (stereo not drawn) [Example 346, 4-(5-(2,4-difluorophenyl)-2,3-dimethyl-1,6-naphthyridin-7-yl)-2-(2-methylpyridin-4-yl)morpholine] |
| ≤ 50 | Cc1cc(C2CN(c3cc4nc(C)c(C)cc4c(-c4ccc(C(F)(F)F)nc4)n3)CCO2)ccn1 (stereo not drawn) [Example 347, 4-(2,3-dimethyl-5-(6-(trifluoromethyl)pyridin-3-yl)-1,6-naphthyridin-7-yl)-2-(2-methylpyridin-4-yl)morpholine] |
| ≤ 50 | Cc1nc2cc(N3CCOC(c4cnn(C5CC5)c4)C3)nc(-c3ccc(Cl)cc3F)c2nc1C (stereo not drawn) [Example 348, 4-(5-(4-chloro-2-fluorophenyl)-2,3-dimethylpyrido[3,4-b]pyrazin-7-yl)-2-(1-cyclopropyl-1H-pyrazol-4-yl)morpholine] |
| ≤ 50 | Cc1nc2cc(N3CCOC(c4cnn(C5CC5)c4)C3)nc(-c3ccc(C(F)(F)F)nc3)c2nc1C (stereo not drawn) [Example 349, 2-(1-cyclopropyl-1H-pyrazol-4-yl)-4-(2,3-dimethyl-5-(6-(trifluoromethyl)pyridin-3-yl)pyrido[3,4-b]pyrazin-7-yl)morpholine] |
